Reference: patent publication US12343429B2, “Method of delivery of DNA or RNA cargo unshielded lipid nanoparticles and compositions thereof” (NanoVation Therapeutics Inc., priority 2023, dated 2025)

What was measured:
[1] = Encapsulation efficiency (RiboGreen), particle size and PDI (Zetasizer Nano ZS) of LNPs; assay type: physicochemical; conditions: PEG-less mRNA-LNP, unmodified method, 27.4/50/22.6 (FIG. 6)
Protocol: Encapsulation efficiency was calculated by determining unencapsulated mRNA content by measuring the fluorescence upon the addition of RiboGreen™ to the mRNA-LNP (Fi) and comparing this value to the total mRNA content that is obtained upon lysis of the LNP by 2% Triton X-100 (Ft): % encapsulation=(Ft−Fi)/Ft×100.
The particle size and polydispersity index (PDI) were characterized using a Zetasizer Nano ZS™.

[2] = LNP formulability and stability through dialysis, concentration and storage; assay type: physicochemical; conditions: for behaviour after dialysis and concentration/storage: PEG-less mRNA-LNP, unmodified method, 27.4/50/22.6; for ability to be formulated in PEG-less mRNA-LNPs: unmodified ethanol mixing method, ionizable lipid/DSPC/chol 27.4/50/22.6, N/P 9 (FIG. 6); for physiochemical characteristics, modified method with 25 mM sodium acetate dilution: 1:2-1:3 volume ratio; for physiochemical properties/stability, modified method with 1× PBS dilution after T-mixing: all ratios of LNP:PBS tested, after dialysis and after concentration to >0.25 mg/mL and overnight storage; for behaviour in dialysis: PEG-less mRNA-LNP 1/structural lipid/cholesterol 27.4/50/22.6, unmodified method; for viability of LNPs, modified method with 25 mM sodium acetate dilution: all ratios of LNP:NaOAc (v:v)
Protocol: Unless otherwise specified, the LNPs were prepared by dissolving mRNA or plasmid DNA (pDNA) in 25 mM sodium acetate, pH 4.0, while the lipid components at the mole % specified were dissolved in absolute ethanol. The lipids in ethanol and the nucleic acid cargo in buffer were combined in a 1:3 volume by volume ratio using a t-junction with dual-syringe pump. The solutions were pushed through the t-junction at a combined flow rate of 20 mL/min (5 mL/minute for the lipid-containing syringe, 15 mL/minute for the mRNA-containing syringe). The mixture was subsequently dialyzed overnight against at least ˜100 volumes of 1× phosphate buffered saline (PBS), pH 7.4 using Spectro/Por™ dialysis membranes (molecular weight cut-off 12 000-14 000 Da). The LNPs were concentrated as required with an Amicon Ultra™ 100 000 MWCO (molecular weight cut-off), regenerated cellulose concentrator.
After T-mixing, 1× phosphate buffered saline (PBS) or other buffer as indicated, was added to the formulation mixture in increasing ratios of LNP: 1× buffer prior to dialysis and gently mixed, followed by transfer to dialysis in 1×PBS (or other suitable buffer as indicated) followed by processing as usual.
After the T-mixing (see Materials and Methods above), 1× phosphate buffered saline (PBS) was added to the formulation mixture in increasing volume ratios of LNP: 1× PBS (as indicated in FIGS. 7A-F) prior to dialysis followed by gentle mixing and transfer of the mixture to a dialysis bag in 1×PBS overnight followed by processing as usual. […] Physiochemical characteristics (particle size, PDI and encapsulation %) were measured after dialysis and after dialysis and concentration of the LNPs to >0.25 mg/mL and overnight storage.

[3] = buffer-to-LNP ratio as low as 1:1 (v:v)
[4] = dilution ratios below 1:1 (v:v)

| SMILES | PDI [1] | encapsulation efficiency [1] | behaviour after dialysis and concentration/storage [2] | ability to be formulated in PEG-less mRNA-LNPs [2] | other results |
| --- | --- | --- | --- | --- | --- |
| CCCCCCCC/C=C\CCCCCCCC(=O)OC[C@H](COP(=O)([O-])OCC[N+](C)(C)C)OC(=O)CCCCCCC/C=C\CCCCCCCC [DOPC, dioleoylphosphatidylcholine] |  |  |  |  | behaviour in dialysis [2]: agglomerated in dialysis |
| CCCCCCCCCCCOC(=O)CCCCCN(CCO)CCCCCCCC(=O)OC(CCCCCCCC)CCCCCCCC [Ionizable lipid 21] |  |  |  | capable of being formulated |  |
| CCCCCCCCCCCCCCCCCC(=O)OC[C@H](COP(=O)([O-])OCC[N+](C)(C)C)OC(=O)CCCCCCCCCCCCCCCCC [DSPC, distearoylphosphatidylcholine] |  |  |  |  | change in physiochemical characteristics after concentration and refrigerated storage ([2]; PEG-less mRNA-LNP 1/structural lipid/cholesterol 27.4/50/22.6, unmodified method (FIGS. 12A, 12B)): no change |
| CCCCCCCCCCCCCC(=O)OC[C@H](COP(=O)([O-])OCC[N+](C)(C)C)OC(=O)CCCCCCCCCCCCC [DMPC, dimyristoylphosphatidylcholine] |  |  |  |  | physiochemical characteristics after concentration/storage ([2]; 12/DMPC/cholesterol 27.4/50/22.6, unmodified method (FIG. 13)): deteriorated after concentration/storage; physiochemical characteristics / behaviour upon dialysis ([2]; PEG-less LNP with 12 as ionizable lipid, helper lipid screen, unmodified method (FIG. 13)): less ideal physiochemical characteristics |
| CCCCCCCCC(=O)OC(CCCCCC(CCCCCC(CSC1CCCCC1)OC(=O)CCCCCCCC)OC(=O)CCCN(C)C)CSC1CCCCC1 (stereo not drawn) [Ionizable lipid 1] |  |  |  | capable of being formulated | viability of LNPs, modified method with 25 mM sodium acetate dilution [2]: viable LNPs; physiochemical properties/stability, modified method with 1× PBS dilution after T-mixing [2]: acceptable physiochemical properties |
| CCCCCCCC/C=C\CCCCCCCC(=O)OC[C@H](COP(=O)(O)OCCN)OC(=O)CCCCCCC/C=C\CCCCCCCC [DOPE, dioleoylphosphatidylethanolamine] |  |  |  |  | behaviour in dialysis [2]: agglomerated in dialysis |

Continued, in another order:

| PDI [1] | encapsulation efficiency [1] | SMILES | behaviour after dialysis and concentration/storage [2] | ability to be formulated in PEG-less mRNA-LNPs [2] | other results |
| --- | --- | --- | --- | --- | --- |
| high | low | CCCCCCCCC(CCCCCC)C(=O)OCCCCCC(CCCCCSCC(CCCCCC)OC(=O)CCC1CCCCC1)N(C)CCCCO (stereo not drawn) [Ionizable lipid 17] | agglomerate after dialysis or were not stable after concentration/storage | undesirable physiochemical characteristics |  |
| high | low | CCCCCCCC(=O)OC(CCCCCC)CSCCCCCC(CCCCCSCC(CCCCCC)OC(=O)CCCCCCC)N(C)CCCCO (stereo not drawn) [Ionizable lipid 15] | agglomerate after dialysis or were not stable after concentration/storage | undesirable physiochemical characteristics | physiochemical characteristics, modified method with 25 mM sodium acetate dilution [2]: ideal physiochemical characteristics; physiochemical properties/stability, modified method with 1× PBS dilution after T-mixing [2]: agglomerated in dialysis; stability, modified method with 25 mM sodium acetate dilution [2, 3]: stable PEG-less lcLNP compositions; stability, modified method with 25 mM sodium acetate dilution [2, 4]: agglomerated in dialysis |
| high | low | CCCCCCC(CSCCCCCC(CCCCCSCC(CCCCCC)OC(=O)CCC1CCCCC1)N(C)CCCCO)OC(=O)CCC1CCCCC1 (stereo not drawn) [Ionizable lipid 16] | agglomerate after dialysis or were not stable after concentration/storage | undesirable physiochemical characteristics | stability, modified method with 1× PBS dilution ([2]; 1:2 (v:v) dilution): stable particles which did not agglomerate in dialysis; physiochemical characteristics, modified method with 25 mM sodium acetate dilution [2]: ideal physiochemical characteristics; stability, modified method with 25 mM sodium acetate dilution [2, 3]: stable PEG-less lcLNP compositions; stability, modified method with 25 mM sodium acetate dilution [2, 4]: agglomerated in dialysis |
| high | low | CCCCCCCCCC(=O)OC(CCCCC1(CCCCC(CSC2CCCCC2)OC(=O)CCCCCCCCC)OCC(CCN(C)C)O1)CSC1CCCCC1 (stereo not drawn) [Ionizable lipid 12] | agglomerate after dialysis or were not stable after concentration/storage | undesirable physiochemical characteristics | viability of LNPs, modified method with 25 mM sodium acetate dilution [2]: viable PEG-less LNPs; stability, modified method with 1× PBS dilution ([2]; less than 1× volume of 1×PBS (1:0.25, 1:0.5, undiluted)): agglomerated upon dialysis; stability, modified method with 1× PBS dilution ([2]; ratios of at least 1:1 (v:v) addition of 1×PBS): stable after concentration and overnight storage |
